Numbers after ± are expanded uncertainties.
Key:
[1] = refractive index (Na D-line) (dimensionless); conditions: 293.15 K; 101.33 kPa; Liquid; Standard Abbe refractometry
[2] = activity coefficient (dimensionless); of the first substance listed, at infinite dilution; xn = mol fraction of the nth substance listed; conditions: 101.33 kPa, Liquid, Chromatography, x1 = 0
[3] = 288.15 K; 101.33 kPa; Liquid; Vibrating tube method

SMILES	refractive index [1]	activity coefficient ([2]; 303.15 K)	activity coefficient ([2]; 313.15 K)	activity coefficient ([2]; 323.15 K)	activity coefficient ([2]; 304.15 K)	mass density [3]
OCCO [1,2-ethanediol]	1.4319 ± 0.0004					
C=CCCCCC [1-heptene] + OCCO		570 ± 26	503 ± 23	452 ± 20		
C=CCCCCC [1-heptene] + OCCOCCO			77.8 ± 3.5	73.4 ± 3.3	84 ± 3.8	
C=CCCCCCCC [1-nonene] + OCCO		1610 ± 73	1300 ± 59	1170 ± 53		
C=CCCCCCCC [1-nonene] + OCCOCCO			174 ± 8	159 ± 7	188 ± 8	
C1CCCCC1 [cyclohexane] + OCCO		270 ± 12	238 ± 11	212 ± 10		
C1CCCCC1 [cyclohexane] + OCCOCCO			46.7 ± 2.1	43.5 ± 1.9	50.6 ± 2.3	
C1CCCC1 [cyclopentane] + OCCO		163 ± 7	149 ± 7	133 ± 6		
C1CCCC1 [cyclopentane] + OCCOCCO			31.6 ± 1.4	30.1 ± 1.3	33.8 ± 1.5	
OCCOCCO [diethylene glycol]	1.4472 ± 0.0004					1120.3 ± 2 kg/m3
CCCCCCC [heptane] + OCCO		1200 ± 54	1030 ± 47	860 ± 39		
CCCCCCC [heptane] + OCCOCCO			151 ± 7	140 ± 6	174 ± 8	
C=CCCCC [hex-1-ene] + OCCO		330 ± 15	298 ± 13	272 ± 12		
C=CCCCC [hex-1-ene] + OCCOCCO			52.4 ± 2.3	50.2 ± 2.2	56.3 ± 2.5	
CCCCCC [hexane] + OCCO		716 ± 32	620 ± 28	543 ± 25		
CCCCCC [hexane] + OCCOCCO			102 ± 5	94.2 ± 4.2	112 ± 5	
CC1CCCCC1 [methylcyclohexane] + OCCO		473 ± 21	407 ± 18	370 ± 17		
CC1CCCCC1 [methylcyclohexane] + OCCOCCO			71.1 ± 4.9	66 ± 4.5	77.2 ± 5.3	
CCCCCCCCC [nonane] + OCCO		2960 ± 140	2320 ± 110	1970 ± 90		
CCCCCCCCC [nonane] + OCCOCCO			329 ± 15	295 ± 13	371 ± 17	
C=CCCCCCC [oct-1-ene] + OCCO		962 ± 44	819 ± 37	736 ± 33		
C=CCCCCCC [oct-1-ene] + OCCOCCO			116 ± 5	108 ± 5	126 ± 6	
CCCCCCCC [octane] + OCCO		1960 ± 89	1600 ± 73	1340 ± 61		
CCCCCCCC [octane] + OCCOCCO			223 ± 10	203 ± 9	249 ± 11	
CCCCC [pentane] + OCCO		436 ± 20	389 ± 18	338 ± 15		
CCCCC [pentane] + OCCOCCO			70.5 ± 3.1	66.4 ± 3	74.1 ± 3.3	
